# Measurements as given in patent publication US20240299556A1, “Magnolol and Sulforaphane Conjgate, and Preparation Method and Use Thereof” (Shenzhen Zhenxing Biomedicine Research Center Co., Ltd., priority 2019, published 2024).
# Like-named read-outs stand apart in the source and are kept apart here.
# Tests used:
# Assay type in all cases: cell-based
# [1] = tested on: human glioma cell line U251; experiment: Proliferation of U251 cells (CCK8 kit)
# Protocol: (§1) Human glioma cell line U251, human lung cancer cell line H1650, human liver cancer cell line HepG2, human breast cancer cell line MDA-MB-231, human gastric cancer cell line AGS, human colon cancer cell line LOVO, human ovarian cancer cell line OVCAR3. 2.1 Cultivation of the above 7 kinds of cancer cells. The cells, when grow to the logarithmic growth phase, were digested with 0.25% trypsin, centrifuged at 1000×g for 5 min, and the cell pellet were re-suspended with 1640 medium containing 10% FBS and inoculated in a 96-well culture plate at a density of 5000 cells/well, and then cultured overnight at 37° C., 5% CO2 and saturated humidity. 2.2 Each group was set up with 6 duplicate wells, and drugs were added to each well according to the following conditions, and then cultured for 24 h. Positive control groups: […] Sulforaphane added at a final concentration of 5.0 μM; • Positive control group 5: Sulforaphane added at a final concentration of 10.0 μM; • Positive control group 6: Sulforaphane added at a final concentration of 20.0 μM. CT-3 groups: Divided into 3 groups: • CT-3 group 1: CT-3 added at a final concentration of 5.0 μM; • CT-3 group 2: CT-3 added at a final concentration of 10.0 μM; • CT-3 group 3: CT-3 added at a final concentration of 20.0 μM. The above cells were intervened for 24 hours, and then the effects of drugs on tumor cell proliferation were detected by using CCK8 kit.
# [2] = tested on: human liver cancer cell line HepG2; experiment: Proliferation of HepG2 cells (CCK8 kit); conditions: HepG2, 24 h
# Protocol: as §1
# [3] = tested on: human lung cancer cell line NCI-H460; experiment: Apoptosis of NCI-H460 cells (apoptosis detection kit, flow cytometry); conditions: NCI-H460, 10.0 μM, 24 h
# Protocol: (§2) The cells, when grow to the logarithmic growth phase, were digested with 0.25% trypsin, centrifuged at 1000×g for 5 min, and the cell pellet were re-suspended with 1640 medium containing 10% FBS and inoculated in a 96-well culture plate at a density of 3.0×10^5 cells/well, and then cultured overnight at 37° C., 5% CO2 and saturated humidity. 2.2 Each group was set up with 3 duplicate wells, and drugs were added to each well according to the following conditions, and then cultured for 24 h. […] Sulforaphane added at a final concentration of 10.0 μM. CT-3 group: CT-3 added at a final concentration of 10.0 μM. The above cells were intervened for 24 hours, and then the effect of CT-3 on tumor cell apoptosis was determined by apoptosis detection kit and flow cytometry.
# [4] = tested on: human colon cancer cell line SW480; experiment: Apoptosis of SW480 cells (apoptosis detection kit, flow cytometry); conditions: SW480, 10.0 μM, 24 h
# Protocol: as §2, with “in a 6-well culture plate” for “in a 96-well culture plate”, “group: CT-3 was added at” for “group: CT-3 added at”
# [5] = tested on: human hepatic normal cell line LO2; experiment: Apoptosis of normal LO2 cells (apoptosis detection kit, flow cytometry); conditions: 24 h
# [6] = tested on: seven human cancer cell lines; experiment: Proliferation of seven human cancer cell lines (CCK8 kit), summary over the panel
# Protocol: as §1
# [7] = tested on: human lung cancer cell line H1650; experiment: Proliferation of H1650 cells (CCK8 kit)
# Protocol: as §1
# [8] = tested on: human ovarian cancer cell line OVCAR3; experiment: Proliferation of OVCAR3 cells (CCK8 kit)
# Protocol: as §1
# [9] = tested on: human breast cancer cell line MDA-MB-231; experiment: Proliferation of MDA-MB-231 cells (CCK8 kit); conditions: MDA-MB-231, 24 h
# Protocol: as §1
# [10] = tested on: human colon cancer cell line LOVO; experiment: Proliferation of LOVO cells (CCK8 kit); conditions: 24 h
# Protocol: as §1
# [11] = tested on: human gastric cancer cell line AGS; experiment: Proliferation of AGS cells (CCK8 kit); conditions: 24 h
# Protocol: as §1
# [12] = tested on: human lung cancer cell line NCI-H460; experiment: Proliferation of NCI-H460 cells (CCK8 kit)
# Protocol: 2.1 Cultivation of NCI-H460 Cells. The Cells, when Grow to the Logarithmic Growth phase, were digested with 0.25% trypsin, centrifuged at 1000×g for 5 min, and the cell pellet were re-suspended with 1640 medium containing 10% FBS and inoculated in a 96-well culture plate at a density of 5000 cells/well, and then cultured overnight at 37° C., 5% CO2 and saturated humidity.
# 2.2 Six duplicate wells were set in each group, and drugs were added to each well according to the following conditions, and then cultured for 24 h.
# Control group: The group without drugs.
# Magnolol group: Magnolol added at a final concentration of 20 μM.
# CT-1 group: CT-1 added at a final concentration of 20 μM.
# CT-2 group: CT-2 added at a final concentration of 20 μM.
# CT-3 group: CT-3 added at a final concentration of 20 μM.
# The above cells were intervened for 24 hours, and then the effects of drugs on tumor cell proliferation were detected by using CCK8 kit. The specific operations are as follows: […] was added to each well and cultured for 2 h, and then the absorbance (OD) value at a wavelength of 450 nm was measured on a microplate reader, and the cell survival rate of the other groups was calculated on the basis of the cell survival rate of the control group as 100%.
# [13] = U-251, U251, 24 h, CCK8, read-out: Half maximal inhibitory concentration (IC50)
# [14] = CCK8, read-out: Half maximal inhibitory concentration (IC50)
# [15] = U251, H1650, HepG2, MDA-MB-231, AGS, LOVO, OVCAR3, 24 h, CCK8, read-out: IC50 against 7 kinds of human cancer cells (range over the panel)
# [16] = NCI-H1650, H1650, 24 h, CCK8, read-out: Half maximal inhibitory concentration (IC50)
# [17] = OVCAR-3, OVCAR3, 24 h, CCK8, read-out: Half maximal inhibitory concentration (IC50)
# [18] = LOVO, CCK8, read-out: Half maximal inhibitory concentration (IC50)
# [19] = NCI-H460, 20 μM, 24 h, CCK8, read-out: Inhibition Rate (%)
# [20] = read-out: Half maximal inhibitory concentration (IC50)
SMILES,"IC50 [1, 13] [µM]","IC50 [2, 14] [µM]",Apoptosis Rate (%) [3] [%],Apoptosis Rate (%) [4] [%],"Apoptosis Rate (%) ([5]; human, 10 μM)","IC50 [6, 15] [µM]","IC50 [7, 16] [µM]","IC50 [8, 17] [µM]","IC50 [9, 14] [µM]","IC50 [10, 18] [µM]","IC50 [11, 14] [µM]","inhibition at 20 µM [12, 19] [%]",also measured
C[S+]([O-])CCCCN=C=S (stereo not shown) [Sulforaphane],22.5,21,18.90,19.99,6.52,18.4 to 22.5,22,18.4,22.2,18.5,18.1,,
C=CCc1ccc(O)c(-c2cc(CC=C)ccc2OCC[S+]([O-])CCCCN=C=S)c1 (stereo not shown) [CT-3],7.75,6.24,73.82,61.87,6.48,5.1 to 8.02,6.92,5.34,7.48,5.1,8.02,99,
C=CCc1ccc(O)c(-c2cc(CC=C)ccc2OCCS(=O)(=O)CCCCN=C=S)c1 [CT-2],,,,,,,,,,,,70.3,
C=CCc1ccc(O)c(-c2cc(CC=C)ccc2OCCSCCCCN=C=S)c1 [CT-1],,,,,,,,,,,,18.4,
C=CCc1ccc(O)c(-c2cc(CC=C)ccc2O)c1 [Magnolol],,,3.12,4.02,,,,,,,,,"IC50 ([1]; U-251, 24 h, read-out: Half maximal inhibitory concentration (IC50)): > 45 µM; IC50 [2, 20]: > 45 µM; inhibition at 20 µM ([12]; NCI-H460, 24 h, read-out: Inhibition Rate (%)): 1.2%; Apoptosis Rate (%) ([5]; normal LO2 cells, 10.0 μM, flow cytometry): 4.71%; IC50 ([6]; 24 h, read-out: IC50 against 7 kinds of human cancer cells (range over the panel)): > 45 µM; IC50 ([7]; NCI-H1650, 24 h, read-out: Half maximal inhibitory concentration (IC50)): > 45 µM; IC50 ([8]; OVCAR-3, 24 h, read-out: Half maximal inhibitory concentration (IC50)): > 45 µM; IC50 [9, 20]: > 45 µM; IC50 ([10]; LoVo, read-out: Half maximal inhibitory concentration (IC50)): > 45 µM; IC50 [11, 20]: > 45 µM"
